Measurements from paper PMC6889545, “ALW peptide ameliorates lupus nephritis in MRL/lpr mice” (Arthritis Research & Therapy, 2019).
Like-named read-outs stand apart in the source and are kept apart here. Values belong to the compound of their own block, whether it stands above or below them. Non-standard residues stand in square brackets, D forms with d. Residues, ends and D or L forms follow the SMILES beside them.

Columns and labels:
[1] = Plasma pharmacokinetics of the peptides after a single dose; assay type: in vivo; conditions: 8-week-old male CD1 mice, single intravenous dose 12.5 mg/kg, plasma 0-24 h, LC-MS/MS, WinNonlin 6.1; for MRT: male, CD1, mouse, plasma, iv, 12.5 mg/kg; for clearance: read-out: Cl (plasma clearance); for Vd: read-out: Vss
Procedure: (§1) Two 12-amino acid peptides (ALWPPNLHAWVP [ALW]; PLPHNPWVLAAW [PLP]) were synthetized by Sangon Biotech Company (China). The PLP peptide was a scrambled peptide with amino acid residues identical to ALW peptide. The first and last amino acids of both peptides are D-form, and the others are L-form. To study the pharmacokinetic characteristics of both peptides in vivo, 8-week-old male CD1 mice were administrated with ALW or PLP peptide at a single dose of 12.5 mg/kg. Plasma samples were collected at each time point before (0) and 0.083, 0.25, 0.5, 1, 2, 4, 8, and 24 h after administration. To assess the biodistribution of ALW peptide in vivo, tissues including the kidney, liver, and lung were collected at 0.083, 0.25, 0.5, 1, 2, and 4 h after administration. Then, the concentration of two peptides in mouse plasma and tissues were quantitatively determined by liquid chromatography-tandem mass spectrometry (LC-MS/MS). The pharmacokinetic parameters were calculated by WinNonlin 6.1 software according to the […] model.

[2] = Tissue biodistribution of ALW peptide (kidney, liver, lung); assay type: in vivo, CD1 mice
Procedure: as §1

BALB/c mice = test: Induction of anti-dsDNA antibodies after intravenous peptide injection; assay type: in vivo, mouse; conditions: same dosages, frequencies and treatment period as MRL/lpr study, data not shown
Excerpt: The ALW and PLP peptides were also intravenously injected into BALB/c mice with the same dosages, frequencies, and treatment period. […] All animal protocols were approved by the Hospital Research Ethics Committee.

[3] = Solubility of the peptides; assay type: physicochemical; conditions: for Maximum solubility: injection solution in saline
Procedure: For the in vivo study, 40 MRL/lpr mice were randomly divided into four groups. Mice in the ALW group (n = 12) received an intravenous injection of 100 μg/mL ALW peptide in saline every other day, mice in the PLP group (n = 12) were injected intravenously with 100 μg/mL PLP peptide in saline, mice in the NaCl group (n = 8) were given normal saline intravenously, and mice in the blank group (n = 8) were not treated. The dosages were decided in a preliminary experiment, showing that the concentration of anti-dsDNA IgG was about 34.74 ± 3.47 ng/mL in MRL/lpr mice aged 24 weeks. By calculating the molecular weights of anti-dsDNA IgG (150 kDa) to ALW peptide (1.4 kDa), the ALW concentration of 100 μg/mL is sufficient to maintain a high molar ratio (much higher than 5 times of anti-dsDNA IgG). In fact, the maximum solubility of PLP peptide is also 100 μg/mL, less than ALW peptide. Urine was collected every 2 weeks. Six weeks later, the mice were euthanized. Blood, urine, and kidneys were harvested for further analysis.

anti-dsDNA IgGs = conditions: cited from earlier work
Excerpt: The ALW peptide is a small molecule with a molecular weight of 1.4 kDa. […] Because there is no methionine, cysteine, and glutamine, which are related with the oxidation, cyclization, and degradation of peptides, ALW may have greater physiological stability. In addition, the ALW peptide has a relatively neutral net charge (pI = 7.38), which probably decrease unnecessary, nonspecific protein-protein interactions. […] Here, after chemical modification ...

murine model = conditions: cited from earlier work
Excerpt: IgG2a and IgG3 had higher affinity for autoantigens in the kidney, followed by IgG1, IgG2b, and IgM [12]. DWEYS peptide (DWEYSVWLSN) is a DNA-mimic peptide screened by a mouse pathogenic monoclonal antibody (IgG2b, R4A clone). […] FISLE-412, a peptide compound mimicking the molecular structure of DWEYS ... || Given the key role of anti-dsDNA antibodies in the pathogenesis of LN, development of specific inhibitors of anti-dsDNA antibodies may be a good method to manage LN. Several polypeptides, specifically reacting with mouse anti-dsDNA IgG2b, were identified by the peptide display phage library. […] FISLE-412, a small peptidomimetic modified from DWEYS peptide, blocked the binding of DNA to monoclonal mouse and human anti-dsDNA antibodies with improved affinity and selectivity. In ...

NZB×NZW F1 lupus mice = conditions: intravenous once a month; cited from earlier work
Excerpt: Given the key role of anti-dsDNA antibodies in the pathogenesis of LN, development of specific inhibitors of anti-dsDNA antibodies may be a good method to manage LN. Several polypeptides, specifically reacting with mouse anti-dsDNA IgG2b, were identified by the peptide display phage library. […] FISLE-412, a small peptidomimetic modified from DWEYS peptide, blocked the binding of DNA to monoclonal mouse and human anti-dsDNA antibodies with improved affinity and selectivity. In ...

[4] = read-out: MRT0-inf (mean residence time) in plasma
[5] = 8-week-old male CD1 mice, single intravenous dose 12.5 mg/kg, kidney tissue 0.083-4 h, LC-MS/MS, WinNonlin 6.1
[6] = 8-week-old male CD1 mice, single intravenous dose 12.5 mg/kg, liver tissue 0.083-4 h, LC-MS/MS, WinNonlin 6.1
[7] = 8-week-old male CD1 mice, single intravenous dose 12.5 mg/kg, lung tissue 0.083-4 h, LC-MS/MS, WinNonlin 6.1

- AUC0-inf in plasma [1]: 264 ng·h/mL
- AUC0-last in plasma [1]: 258 ng·h/mL
- MRT0-inf (mean residence time) in plasma [1]: 7.8 min
- T1/2 (elimination half-life) in plasma [1]: 18.9 min
- MRT [1, 4]: 7.8 min
- MRT ([1]; read-out: MRT0-last in plasma): 6 min
- C0 ([1]; mouse): 3640 ng/mL
- clearance ([1]; mouse): 789 mL/min/kg
- half-life ([1]; mouse, read-out: T1/2 (elimination half-life) in plasma (converted)): 19.2 min
- Vd ([1]; mouse): 6.16 L/kg
- AUC0-inf in kidney [2, 5]: 28.80 ng·h/g
- AUC0-last in kidney [2, 5]: 25.51 ng·h/g
- Cmax in kidney [2, 5]: 60.00 ng/g
- MRT0-inf in kidney [2, 5]: 27.6 min
- MRT0-last in kidney [2, 5]: 19.8 min
- T1/2 in kidney [2, 5]: 18.6 min
- Tmax in kidney [2, 5]: 4.8 min
- Kp, kidney ([2]; 8-week-old male CD1 mice, single intravenous dose 12.5 mg/kg, kidney versus plasma): 0.11
- AUC0-last in liver [2, 6]: 2.29 ng·h/g
- Cmax in liver [2, 6]: 11.80 ng/g
- MRT0-last in liver [2, 6]: 8.4 min
- Tmax in liver [2, 6]: 4.8 min
- Kp, liver ([2]; 8-week-old male CD1 mice, single intravenous dose 12.5 mg/kg, liver versus plasma): 0.01
- AUC0-last in lung [2, 7]: 5.10 ng·h/g
- Cmax in lung [2, 7]: 7.33 ng/g
- MRT0-last in lung [2, 7]: 29.4 min
- Tmax in lung [2, 7]: 15 min
- Kp, lung ([2]; 8-week-old male CD1 mice, single intravenous dose 12.5 mg/kg, lung versus plasma): 0.02
- Renal tissue exposure as share of plasma exposure ([2]; CD1 mice, intravenous 12.5 mg/kg, kidney): approximately 11.2%
- Liver tissue exposure as share of plasma exposure ([2]; CD1 mice, intravenous 12.5 mg/kg, liver): 0.892%
- Lung tissue exposure as share of plasma exposure ([2]; CD1 mice, intravenous 12.5 mg/kg, lung): 1.99%
- Anti-dsDNA antibodies in sera after treatment (immunogenicity) (BALB/c mice): induced no anti-dsDNA antibodies
- Anti-dsDNA antibodies in sera after treatment (immunogenicity) (BALB/c mice; listed as ALW): no detectable anti-dsDNA antibodies
- Maximum solubility [3]: > 100 µg/mL
- Solubility in water or PBS ([3]; water or PBS): easy to dissolve in water or PBS
Compound: CC(C)C[C@H](NC(=O)[C@H](CC(N)=O)NC(=O)[C@@H]1CCCN1C(=O)[C@@H]1CCCN1C(=O)[C@H](Cc1c[nH]c2ccccc12)NC(=O)[C@H](CC(C)C)NC(=O)[C@@H](C)N)C(=O)N[C@@H](Cc1c[nH]cn1)C(=O)N[C@@H](C)C(=O)N[C@@H](Cc1c[nH]c2ccccc12)C(=O)N[C@H](C(=O)N1CCC[C@@H]1C(=O)O)C(C)C [ALW peptide] (H-[dA]LWPPNLHAWV[dP]-OH)
- Resistance of the peptide to catalysis (anti-dsDNA IgGs; after substituting two terminal residues A and P with D-form ones): enhanced
- Catalysis of the peptide by anti-dsDNA IgGs (anti-dsDNA IgGs; unmodified peptide): catalyzed weakly

- MRT0-inf (mean residence time) in plasma [1]: 13.6 min
- MRT [1, 4]: 13.8 min
- MRT ([1]; read-out: MRT0-last in plasma): 11.4 min
- C0 ([1]; mouse): 85400 ng/mL
- AUC(0-inf) ([1]; mouse, read-out: AUC0-inf in plasma): 14100 ng·h/mL
- AUC(0-t) ([1]; mouse, read-out: AUC0-last in plasma): 14100 ng·h/mL
- clearance ([1]; mouse): 14.7 mL/min/kg
- Vd ([1]; mouse): 0.2 L/kg
- Anti-dsDNA antibodies in sera after treatment (immunogenicity) (BALB/c mice): no detectable anti-dsDNA antibodies
- Maximum solubility [3]: 100 µg/mL
Compound: CC(C)C[C@H](NC(=O)[C@@H](NC(=O)[C@H](Cc1c[nH]c2ccccc12)NC(=O)[C@@H]1CCCN1C(=O)[C@H](CC(N)=O)NC(=O)[C@H](Cc1c[nH]cn1)NC(=O)[C@@H]1CCCN1C(=O)[C@H](CC(C)C)NC(=O)[C@H]1CCCN1)C(C)C)C(=O)N[C@@H](C)C(=O)N[C@@H](C)C(=O)N[C@H](Cc1c[nH]c2ccccc12)C(=O)O [PLP peptide, reference compound] (H-[dP]LPHNPWVLAA[dW]-OH)

Compound: DWEYSVWLSN [DWEYS peptide, DNA-mimic peptide … screened by a mouse pathogenic monoclonal antibody (IgG2b, R4A clone)]
- Renal deposition of IgG2b (murine model; SCID mice): protected SCID mice from the renal deposition of IgG2b
- Renal IgG deposition (murine model; murine model, intraperitoneal administration): evidently depressed

Compound: FIEWNKLRFRQGLEW [pCons, 15-mer peptide based on MHC class I and II T cell determinants in the VH region of murine anti-dsDNA IgG2a or IgG2b]
- Emergence of multiple autoantibodies (NZB×NZW F1 lupus mice): delayed the emergence of multiple autoantibodies
